Measurements as given in US6399542B1, “Alkoxyimino-substituted bicyclic compounds compositions containing the same and method of making such compounds” (Agro-Kanesho Co., Ltd., priority 1997, dated 2002).
Read-outs that look alike come from different tables or passages of the source.

Tests used:
[1] = tested on: Psecidoperonospora cubensis; assay: Effect on Cucumber downy mildew (preventive spray test); type: in vivo; conditions: 7 days after inoculation
Botrytis cinerea = assay: Effect on Cucumber gray mold (cotyledon paper disc test); type: in vivo; conditions: 3 days after inoculation
Erysiphe graminis = assay: Effects on Barley powdery mildew (preventive spray test); type: in vivo; conditions: lesions counted seven days after inoculation
Rhizoctonia solani = assay: Effect on Rice sheath blight (preventive spray test); conditions: 10 days after inoculation
Puccinia recondita = assay: Effect on Wheat brown rust (preventive spray test); type: in vivo; conditions: 7 days after inoculation
Phytophthora infestans = type: in vivo; conditions: Tomato late blight, 5 days after inoculation
Pyricularia oryzae = type: in vivo; conditions: Rice blast, 7 days after inoculation
Chochliobolus miyabeanus = assay: Effect on Rice brown spot (preventive spray test); type: in vivo; conditions: 7 days after inoculation
[2] = conc. of active ingredient 20 ppm
[3] = conc. of active ingredient 100 ppm
[4] = conc. of active ingredient 4 ppm

Structure (SMILES): CNC(=O)/C(=N/OC)c1ccccc1COc1ccc2c(c1)OCC2=NOC/C=C/Cl [a-63]
- Preventive rate (%) [1, 2]: 100%
- Preventive rate (%) [1, 3]: 100%
- Preventive rate (%) (Botrytis cinerea; [2]): 100%
- Preventive rate (%) (Botrytis cinerea; [3]): 100%
- Preventive rate (%) (Erysiphe graminis; [4]): 99%
- Preventive rate (%) (Erysiphe graminis; [2]): 100%
- Preventive rate (%) (Erysiphe graminis; [3]): 100%

Structure (SMILES): C#CCON=C1COc2c1ccc(OCc1ccccc1/C(=N\OC)C(=O)OC)c2C [a-70]
- Preventive rate (%) [1, 2]: 88%
- Preventive rate (%) [1, 3]: 91%
- Preventive rate (%) (Rhizoctonia solani; [2]): 80%
- Preventive rate (%) (Rhizoctonia solani; [3]): 90%
- Preventive rate (%) (Botrytis cinerea; [2]): 53%
- Preventive rate (%) (Botrytis cinerea; [3]): 85%
- Preventive rate (%) (Puccinia recondita; [4]): 99%
- Preventive rate (%) (Puccinia recondita; [2]): 100%
- Preventive rate (%) (Puccinia recondita; [3]): 100%
- Preventive rate (%) (Phytophthora infestans; [2]): 95%
- Preventive rate (%) (Phytophthora infestans; [3]): 95%
- Preventive rate (%) (Erysiphe graminis; [2]): 100%
- Preventive rate (%) (Erysiphe graminis; [3]): 100%

Structure (SMILES): C#CCON=C1COc2c1ccc(OCc1ccccc1/C(=N\OC)C(=O)NC)c2C [a-71]
- Preventive rate (%) [1, 4]: 100%
- Preventive rate (%) [1, 2]: 100%
- Preventive rate (%) [1, 3]: 100%
- Preventive rate (%) (Botrytis cinerea; [2]): 100%
- Preventive rate (%) (Botrytis cinerea; [3]): 100%
- Preventive rate (%) (Puccinia recondita; [4]): 100%
- Preventive rate (%) (Puccinia recondita; [2]): 100%
- Preventive rate (%) (Puccinia recondita; [3]): 100%
- Preventive rate (%) (Erysiphe graminis; [2]): 100%
- Preventive rate (%) (Erysiphe graminis; [3]): 100%
- Preventive rate (%) (Pyricularia oryzae; [2]): 89%
- Preventive rate (%) (Pyricularia oryzae; [3]): 91%

Structure (SMILES): CNC(=O)/C(=N/OC)c1ccccc1COc1ccc2c(c1C)OC(C)C2=NOC (stereo not shown) [b-7]
- Preventive rate (%) [1, 4]: 89%
- Preventive rate (%) [1, 2]: 93%
- Preventive rate (%) [1, 3]: 96%
- Preventive rate (%) (Rhizoctonia solani; [2]): 86%
- Preventive rate (%) (Rhizoctonia solani; [3]): 98%
- Preventive rate (%) (Puccinia recondita; [4]): 99%
- Preventive rate (%) (Puccinia recondita; [2]): 100%
- Preventive rate (%) (Puccinia recondita; [3]): 100%
- Preventive rate (%) (Phytophthora infestans; [2]): 95%
- Preventive rate (%) (Phytophthora infestans; [3]): 100%
- Preventive rate (%) (Erysiphe graminis; [4]): 99%
- Preventive rate (%) (Erysiphe graminis; [2]): 100%
- Preventive rate (%) (Erysiphe graminis; [3]): 100%
- Preventive rate (%) (Chochliobolus miyabeanus; [4]): 56%
- Preventive rate (%) (Chochliobolus miyabeanus; [2]): 95%
- Preventive rate (%) (Chochliobolus miyabeanus; [3]): 96%
- Preventive rate (%) (Pyricularia oryzae; [2]): 89%
- Preventive rate (%) (Pyricularia oryzae; [3]): 100%

Structure (SMILES): CON=C(C(=O)OC)c1ccccc1COc1ccc2c(c1)OCCC2=NOC [c-4]
- Preventive rate (%) [1, 2]: 94%
- Preventive rate (%) [1, 3]: 100%
- Preventive rate (%) (Rhizoctonia solani; [2]): 53%
- Preventive rate (%) (Rhizoctonia solani; [3]): 98%
- Preventive rate (%) (Puccinia recondita; [3]): 100%
- Preventive rate (%) (Phytophthora infestans; [2]): 97%
- Preventive rate (%) (Phytophthora infestans; [3]): 97%
- Preventive rate (%) (Chochliobolus miyabeanus; [2]): 80%
- Preventive rate (%) (Chochliobolus miyabeanus; [3]): 80%
- Preventive rate (%) (Pyricularia oryzae; [2]): 86%
- Preventive rate (%) (Pyricularia oryzae; [3]): 90%

Structure (SMILES): CON=C(C(=O)OC)c1ccccc1COc1ccc2c(c1C)OCCC2=NOC [c-15]
- Preventive rate (%) [1, 4]: 81%
- Preventive rate (%) [1, 2]: 100%
- Preventive rate (%) [1, 3]: 100%
- Preventive rate (%) (Botrytis cinerea; [2]): 75%
- Preventive rate (%) (Botrytis cinerea; [3]): 77%
- Preventive rate (%) (Puccinia recondita; [2]): 100%
- Preventive rate (%) (Puccinia recondita; [3]): 100%
- Preventive rate (%) (Phytophthora infestans; [4]): 84%
- Preventive rate (%) (Phytophthora infestans; [2]): 94%
- Preventive rate (%) (Phytophthora infestans; [3]): 100%
- Preventive rate (%) (Erysiphe graminis; [4]): 100%
- Preventive rate (%) (Erysiphe graminis; [2]): 100%
- Preventive rate (%) (Erysiphe graminis; [3]): 100%
- Preventive rate (%) (Chochliobolus miyabeanus; [2]): 97%
- Preventive rate (%) (Chochliobolus miyabeanus; [3]): 100%
- Preventive rate (%) (Pyricularia oryzae; [2]): 80%
- Preventive rate (%) (Pyricularia oryzae; [3]): 100%

Structure (SMILES): CNC(=O)C(=NOC)c1ccccc1COc1ccc2c(c1C)OCCC2=NOC [c-16]
- Preventive rate (%) (Botrytis cinerea; [2]): 49%
- Preventive rate (%) (Botrytis cinerea; [3]): 60%
- Preventive rate (%) (Puccinia recondita; [2]): 100%
- Preventive rate (%) (Puccinia recondita; [3]): 100%
- Preventive rate (%) (Phytophthora infestans; [4]): 84%
- Preventive rate (%) (Phytophthora infestans; [2]): 100%
- Preventive rate (%) (Phytophthora infestans; [3]): 100%
- Preventive rate (%) (Erysiphe graminis; [2]): 100%
- Preventive rate (%) (Erysiphe graminis; [3]): 100%
- Preventive rate (%) (Pyricularia oryzae; [2]): 91%
- Preventive rate (%) (Pyricularia oryzae; [3]): 100%

Structure (SMILES): CNC(=O)C(=NOC)c1ccccc1COc1cc2c(cc1C)C(=NOC)CCO2 [c-27]
- Preventive rate (%) [1, 4]: 86%
- Preventive rate (%) [1, 2]: 93%
- Preventive rate (%) [1, 3]: 96%
- Preventive rate (%) (Rhizoctonia solani; [2]): 93%
- Preventive rate (%) (Rhizoctonia solani; [3]): 94%
- Preventive rate (%) (Puccinia recondita; [4]): 96%
- Preventive rate (%) (Puccinia recondita; [2]): 100%
- Preventive rate (%) (Puccinia recondita; [3]): 100%
- Preventive rate (%) (Phytophthora infestans; [2]): 98%
- Preventive rate (%) (Phytophthora infestans; [3]): 100%
- Preventive rate (%) (Erysiphe graminis; [4]): 100%
- Preventive rate (%) (Erysiphe graminis; [2]): 100%
- Preventive rate (%) (Erysiphe graminis; [3]): 100%
- Preventive rate (%) (Pyricularia oryzae; [2]): 95%
- Preventive rate (%) (Pyricularia oryzae; [3]): 100%

Structure (SMILES): CCc1c(OCc2ccccc2C(=NOC)C(=O)NC)ccc2c1OCCC2=NOC [c-30]
- Preventive rate (%) (Rhizoctonia solani; [2]): 56%
- Preventive rate (%) (Rhizoctonia solani; [3]): 98%
- Preventive rate (%) (Puccinia recondita; [4]): 100%
- Preventive rate (%) (Puccinia recondita; [2]): 100%
- Preventive rate (%) (Puccinia recondita; [3]): 100%
- Preventive rate (%) (Erysiphe graminis; [4]): 95%
- Preventive rate (%) (Erysiphe graminis; [2]): 100%
- Preventive rate (%) (Erysiphe graminis; [3]): 100%
- Preventive rate (%) (Pyricularia oryzae; [2]): 100%
- Preventive rate (%) (Pyricularia oryzae; [3]): 100%

Structure (SMILES): CNC(=O)C(=NOC)c1ccccc1COc1ccc2c(c1C)OCCC2=NOCc1c(F)c(F)c(F)c(F)c1F [c-83]
- Preventive rate (%) (Rhizoctonia solani; [2]): 79%
- Preventive rate (%) (Rhizoctonia solani; [3]): 81%
- Preventive rate (%) (Puccinia recondita; [4]): 95%
- Preventive rate (%) (Puccinia recondita; [2]): 100%
- Preventive rate (%) (Puccinia recondita; [3]): 100%
- Preventive rate (%) (Erysiphe graminis; [2]): 96%
- Preventive rate (%) (Erysiphe graminis; [3]): 100%
